Numbers after ± are expanded uncertainties.
Conditions: Liquid, Ebulliometric method (Recirculating still)

Row | Structure (SMILES) | vapor or sublimation pressure (370.35 K) [kPa] | vapor or sublimation pressure (373.15 K) [kPa]
1 | CCCO [propan-1-ol] | 101.3 ± 1.1 | 
2 | O [water] |  | 101.3 ± 1.1

Source: the NIST ThermoML archive (doi:10.1016/j.jct.2017.06.014)
